Data from ChEMBL document CHEMBL3763135, “Synthesis and evaluation of thiophene-based guanylhydrazones (iminoguanidines) efficient against panel of voriconazole-resistant fungal isolates” (Bioorg Med Chem, 2016).
The source made the active and inactive calls. The rule behind the calls is not given here.

Experiments:
Candida albicans [1] = assay: Antifungal activity against Candida albicans ATCC 10231 by broth dilution method; type: functional
Fusarium oxysporum = assay: Antifungal activity against Fusarium oxysporum AB18 by broth dilution method; type: functional
Candida albicans [2] = assay: Antibiofilm activity against Candida albicans ATCC 10231 assessed as disruption of preformed biofilm after 24 hrs by concanavalin A-FITC-staining based fluorescence microscopic analysis; type: functional
Aspergillus fumigatus = assay: Antifungal activity against Aspergillus fumigatus ATCC 13073 by broth dilution method; type: functional
Candida albicans [3] = assay: Antifungal activity against Candida albicans CA5 by broth dilution method; type: functional
Candida parapsilosis [4] = assay: Antifungal activity against Candida parapsilosis C27 by broth dilution method; type: functional; conditions: Lodderomyces parapsilosis
Candida albicans [5] = assay: Antibiofilm activity against Candida albicans assessed as inhibition of Spider medium-induced hyphae formation at sub-MIC after 24 hrs by propidium iodide and FITC-conjugated concanavaline A staining based fluorescence microscopy; type: functional, organism-based
[6] = test system: Trichophyton mentagrophytes; assay: Antifungal activity against Trichophyton mentagrophytes DMT4 by broth dilution method; type: functional
Pichia kudriavzevii [7] = assay: Antifungal activity against Candida krusei ATCC 34135 by broth dilution method; type: functional
Pichia kudriavzevii [8] = assay: Antibiofilm activity against Pichia kudriavzevii ATCC 34135 assessed as disruption of preformed biofilm after 24 hrs by concanavalin A-FITC-staining based fluorescence microscopic analysis; type: functional
MRC5 = assay: Cytotoxicity against human MRC5 cells after 48 hrs by MTT assay; type: cell-based; conditions: MRC5, 48 h
[9] = Hemolytic effect in sheep RBC assessed as release of hemoglobin at 25 ug/ml after 1 hr; type: ADME, cell-based, Ovis aries, Erythrocyte; conditions: sheep red blood cells, read-out: Activity
Candida parapsilosis [10] = assay: Antibiofilm activity against Candida parapsilosis C27 assessed as disruption of preformed biofilm after 24 hrs by concanavalin A-FITC-staining based fluorescence microscopic analysis; type: functional
Candida albicans [11] = assay: Induction of DNA intercalation with Candida albicans genomic DNA at 25 ug/ml after 12 hrs by ethidium bromide staining based gel electrophoresis method
Microsporum canis = assay: Antifungal activity against Microsporum canis DMT2 by broth dilution method; type: functional
[12] = Hemolytic effect in sheep RBC assessed as release of hemoglobin at MIC after 1 hr; type: ADME, cell-based, Ovis aries, Erythrocyte; conditions: sheep red blood cells, read-out: Activity
[13] = Hemolytic effect in sheep RBC assessed as release of hemoglobin at cytotoxic IC50 after 1 hr; type: cell-based, Ovis aries, Erythrocyte; conditions: sheep red blood cells, read-out: Activity
[14] = Selectivity index, ratio of IC50 for human MRC5 cell to MIC for Candida albicans CA5
[15] = Induction of membrane damage in PC/PS/E liposome assessed as calcein release at MIC after 30 mins by fluorescence-based liposome leakage assay; type: functional

| Structure (SMILES) | MIC (Candida albicans [1]) [µg/mL] | MIC (Fusarium oxysporum) [µg/mL] | MBEC (Candida albicans [2]) [µg/mL] | MIC (Aspergillus fumigatus) [µg/mL] | MIC (Candida albicans [3]) [µg/mL] | MIC (Candida parapsilosis [4]) [µg/mL] | Activity (Candida albicans [5]) | MIC [6] [µg/mL] | MIC (Pichia kudriavzevii [7]) [µg/mL] | MBEC (Pichia kudriavzevii [8]) [µg/mL] | IC50 (MRC5) [µg/mL] | hemolysis at 1 h, 25 ug/ml [9] [%] | MBEC (Candida parapsilosis [10]) [µg/mL] | Activity (Candida albicans [11]) | MIC (Microsporum canis) [µg/mL] | hemolysis at 1 h [12] [%] | hemolysis at 1 h [13] [%] | Selectivity Index [14] | Activity [15] [%] |
| --- | --- | --- | --- | --- | --- | --- | --- | --- | --- | --- | --- | --- | --- | --- | --- | --- | --- | --- | --- |
| Cl.Cl.N=C(N)N/N=C/c1ccc(-c2ccncc2)s1 | 15.6 | > 250 | 1000 | 250 | 125 | > 250 | Active | 25 | > 250 | >1000 | 25 | 20 | >1000 | Active | 125 |  |  |  |  |
| Cl.Cl.N=C(N)N/N=C/c1ccc(-c2ccc(-c3ccc(/C=N/NC(=N)N)cc3)s2)cc1 | 3.9 | > 250 | 250 | 25 | 0.25 | 50 | inactive | 0.25 | 50 | 1000 | 5 |  | 1000 | Active | 0.25 | ≤ 10 | ≤ 10 | 20 | 7 |
